The values that follow come from patent US6495699B2, “Metalloproteinase inhibitors, pharmaceutical compositions containing them, and their use” (Agouron Pharmaceuticals Inc., priority 1996, dated 2002).

What all share (format): biochemical
Assay [1] concerns the target T1, catalytic domain of human stromelysin (Hsln) (Homo sapiens, UniProt P08254).
T1 construct: The catalytic domain of human stromelysin (Hsln) was obtained by expression and purification of a C-terminally truncated prostromelysin-1; made in house; host or cells: E. coli BL21
Put plainly: Fluorometric MCA-peptide hydrolysis assay, stromelysin (Hsln). As to conditions: apparent Ki; 10 μM MCA peptide substrate, 37° C., pH 7.5; read-out: Hsln (Ki,app). The method, then: The catalytic domain of human stromelysin (Hsln) was obtained by expression and purification of a C-terminally truncated prostromelysin-1 from E. coli host BL21 (see Marcy et al. Biochem., 1991, 30, 6476). The subsequent activation of the mature form (Hsln) was completed with 2 mM APMA for 1 hour at 37° C., followed by separation using a sizing column.
(§1) Assays were performed in assay buffer (50 mM Tricine pH 7.5, 200 mM sodium chloride, 10 mM calcium chloride, 0.5 mM zinc acetate containing 2% dimethyl sulfoxide (DMSO)) once the substrate and inhibitor were diluted into it. Stock solutions of inhibitors were prepared in 100% DMSO. Stock solutions of the substrate were prepared in 100% DMSO at a concentration of 6 mM.
(§2) The assay method was based on the hydrolysis of MCA-Pro-Leu-Gly-Leu-DPA-Ala-Arg-NH2 (American Peptide Co.) at 37° C. (see Knight, C. G. et al., FEBS, 1992, 296, 263-266). The fluorescence changes were monitored with a Perkin-Elmer LS-50B fluorimeter using an excitation wavelength of 328 nm and an emission wavelength of 393 nm. The substrate concentration used in the assays was 10 μM. The inhibitor was diluted into the assays from a solution in 100% DMSO, and controls substituted an equal volume of DMSO so that the final DMSO concentration from inhibitor and substrate dilution in all assays was 2%. […] Proper determination of steady-state rates of substrate cleavage required assay lengths of 60 minutes to allow for complete equilibration of the enzyme-inhibitor complex.
(§3) The Km for the MCA peptide substrate with the matrix metalloproteinases is quite high and exceeds its solubility under assay conditions. Consequently, the apparent Ki (Ki,app) was determined to describe the strength of inhibition. However, in this case, Ki,app would be essentially equal to Ki since [S]<<Km. For the determination of Ki,app, the concentration of the inhibitor was varied at a constant and low concentration of substrate and the steady-state rates of fluorescence change determined. In most cases absorptive quench due to the presence of ligand was not observed. For slow-binding inhibitors, onset of inhibition curves were collected for at least 45 minutes so that equilibrium was established. Steady-state rates of fluorescence change were obtained by fitting a curve to an equation for a single exponential decay containing a linear phase. The fitted value of the linear phase was taken as the steady-state rate. The steady-state rates were fitted to the Michaelis equation describing competitive inhibition by non-linear methods. Data resulting from tight-binding inhibition was analyzed, and Ki,app determined by fitting the data to the tight-binding equation of Morrison (Biochem. Biophys. Acta, vol. 185, pp. 269-286 (1969)) by non-linear methods.

The target in assay [2] is T2, human progelatinase A (GelA), catalytic and fibronectin-like portion (Homo sapiens, UniProt P08253).
T2 construct: The catalytic and fibronectin-like portion of human progelatinase A (GelA) was expressed as a fusion protein with ubiquitin; ubiquitin; made in house; host or cells: E. coli
Put plainly: Fluorometric MCA-peptide hydrolysis assay, gelatinase A (GelA). As to conditions: apparent Ki, 10 μM MCA peptide substrate, 37° C., pH 7.5; for pKi: read-out: GelA (Ki,app). The method, then:
The catalytic and fibronectin-like portion of human progelatinase A (GelA) was expressed as a fusion protein with ubiquitin in E. Coli. Assays were carried out on autocatalytically activated material.
as §1, §2, §3

Assay [3] addresses T3, human collagenase-3 (Coll3) (Homo sapiens, UniProt P45452).
T3 construct: the catalytic domain was liberated by treatment with 2 mM APMA at room temperature overnight; ubiquitin (N, cleaved yes); made in house; host or cells: E. coli
Put plainly: Fluorometric MCA-peptide hydrolysis assay, collagenase-3 (Coll3). Conditions: apparent Ki; 10 μM MCA peptide substrate, 37° C., pH 7.5; read-out: Coll3 (Ki,app). The method, then: The propeptide and catalytic domain of human collagenase-3 (Coll3) was expressed in E. coli as an N-terminal fusion protein with ubiquitin. After purification of the fusion from inclusion bodies, the catalytic domain was liberated by treatment with 2 mM APMA at room temperature overnight. Final purification was completed using copper chelate chromatography.
as §1, §2
as §3, with “In most cases absorptive quench due to the presence of ligand was not observed.” left out

A further assay has as its target T4, Human matrilysin (Matr) (Homo sapiens, UniProt P09237).
T4 construct: the catalytic domain was liberated by treatment with 2 mM APMA at 37° C. for 2 hours; ubiquitin (cleaved yes); made in house; host or cells: E. coli
T4 sequence (P09237 95-267): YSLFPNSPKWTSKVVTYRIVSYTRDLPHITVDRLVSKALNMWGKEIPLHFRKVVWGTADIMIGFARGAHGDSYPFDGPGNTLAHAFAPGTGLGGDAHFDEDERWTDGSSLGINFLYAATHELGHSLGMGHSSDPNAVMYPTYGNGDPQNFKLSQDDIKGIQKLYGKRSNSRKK
Put plainly: Fluorometric MCA-peptide hydrolysis assay, matrilysin (Matr). Conditions: apparent Ki; 10 μM MCA peptide substrate, 37° C., pH 7.5; read-out: Matr (Ki,app). The method, then:
Human matrilysin (Matr) was expressed in E. coli as a fusion protein with ubiquitin. After purification of the matrilysin/ubiquitin fusion from inclusion bodies, the catalytic domain was liberated by treatment with 2 mM APMA at 37° C. for 2 hours. Final purification was complete using copper chelate chromatography.
as §1, §2, §3

pKi: −log10 of the molar value.

T1 sequence (P08254 100-272 limits assumed): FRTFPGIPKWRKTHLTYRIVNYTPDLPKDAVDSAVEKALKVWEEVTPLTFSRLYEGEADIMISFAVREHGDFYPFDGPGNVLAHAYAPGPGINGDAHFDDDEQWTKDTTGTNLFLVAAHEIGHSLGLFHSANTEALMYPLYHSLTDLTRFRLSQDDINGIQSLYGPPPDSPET
T2 sequence (P08253 110-465 limits assumed): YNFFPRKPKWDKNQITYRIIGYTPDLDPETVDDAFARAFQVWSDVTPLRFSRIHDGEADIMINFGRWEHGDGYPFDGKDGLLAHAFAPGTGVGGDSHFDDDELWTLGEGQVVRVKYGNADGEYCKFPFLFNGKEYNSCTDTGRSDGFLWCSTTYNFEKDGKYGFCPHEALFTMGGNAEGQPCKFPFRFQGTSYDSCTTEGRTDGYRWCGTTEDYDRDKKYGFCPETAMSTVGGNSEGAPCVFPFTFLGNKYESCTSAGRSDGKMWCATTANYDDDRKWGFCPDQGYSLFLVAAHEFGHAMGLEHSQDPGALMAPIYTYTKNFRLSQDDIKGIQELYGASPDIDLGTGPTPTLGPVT

What is called pKi is the Ki on a negative log10 scale, so that one unit is a factor of ten. In the case of `CNC(=O)[C@@H](NC(=O)C(CC(=O)O)c1ccc(-c2ccc(-c3ccccc3)cc2)o1)C(C)(C)C` (stereo partly drawn) [Example 15(b), N-[2,2-Dimethyl-1(S)-(methylcarbamoyl)propyl]-3-(2-(biphenyl-4-yl)-furan-5-yl)succinamic Acid], the negative-log Ki (pKi) in assay [1] is 6.91; in assay [3], 5.99. In addition, the GelA (Ki,app) in assay [2] turned out to be 91 nM.

On to `CC(=O)[C@H](CC(C)C)NC(=O)[C@@H](CC(=O)O)n1ccc(-c2ccc(-c3ccccc3)cc2)c1` [Example 2, N-(1(S)-Acetyl-3-methylbutyl)-3(R)-[3-(biphenyl-4-yl)-1H-pyrrol-1-yl)succinamic Acid], for which the pKi in assay [1] is 7.05; at Human matrilysin (Matr) it was 6.40; in assay [3], 6.91. Besides, the GelA (Ki,app) in assay [2] was 6.2 nM.

Regarding `CC(C)C[C@H](NC(=O)[C@@H](CC(=O)O)n1ccc(-c2ccc(-c3ccncc3)cc2)c1)c1ncc[nH]1.O=CO` [Example 7(c), N-[1(S)-(1H-Imidazol-2-yl)-3-methylbutyl]-3(R)-[3-[4-(pyridin-4-yl)phenyl]-1H-pyrrol-1-yl]succinamic Acid Formate Salt], the results for the pKi (in assay [1]; at Human matrilysin (Matr); in assay [3]) were 7.59, 5.27 and 8.89, respectively. Also, in assay [2], the GelA (Ki,app) was 0.055 nM.

Turning to `CC(C)(C)[C@@H](CO)NC(=O)[C@@H]([C@H](CCCO)C(=O)O)n1ccc(-c2ccc(-c3ccccc3)cc2)c1` [Example 11, 2S-[1R-(3-(Biphenyl-4-yl)-1H-pyrrol-1-yl)-1-(1(S)-hydroxymethyl-2,2-dimethyl-propylcarbamoyl)-methyl]-5-hydroxypentanoic Acid], the pKi is 7.21 in assay [1] and under 6.12 in assay [3]. The GelA (Ki,app) in assay [2] came to 60 nM.

Consider `CC(C)(C)[C@@H](CO)NC(=O)[C@@H](CC(=O)NO)n1ccc(-c2ccc(-c3ccncc3)cc2)c1` [Example 9, N^1-[2,2-Dimethyl-1(S)-(hydroxymethyl)propyl]-N^4-hydroxy-2(R)-[3-[4-(pyridin-4-yl)phenyl]-1H-pyrrol-1-yl]succinamide], for which the pKi in assay [1] is 9.70; in assay [3] it was 10.74. In assay [2], the GelA (Ki,app) stood at 0.011 nM.

On to “3(R)-[3-(4-Cyanophenyl)-1H-pyrrol-1-yl]-N-(2,2-dimethyl-1(S)-(hydroxymethyl)propyl)succinamic Acid Triethylammonium Salt [Example 5(h)]”, for which the pKi in assay [1] is 6.19; in assay [2] it was 7.76; in assay [3], 7.37.

Regarding “3(R)-[3-(4′-Cyanobiphenyl-4-yl)-1H-pyrrol-1-yl]-N-[2,2-dimethyl-1(S)-(hydroxymethyl)propyl]succinamic Acid Triethylammonium Salt [Example 5(g)]”, the pKi is 7.24 in assay [1], 8.66 in assay [2] and 7.84 in assay [3].

For the molecule `O=C(O)C[C@H](C(=O)N[C@H](CO)Cc1ccccc1)c1ccc(-c2ccc(-c3ccccc3)cc2)o1` [Example 15(a), N-(1(S)-Benzyl-2-hydroxyethyl)-3(S)-(2-(biphenyl-4-yl)furan-5-yl)succinamic Acid], the pKi is 7.04 in assay [1] and 6.52 in assay [3]. In addition, the GelA (Ki,app) in assay [2] was 72 nM.

Turning to `O=C(C[C@H](C(=O)N[C@H](CO)Cc1ccccc1)n1ccc(-c2ccc(-c3ccccc3)cc2)c1)NO` [Example 8(a)], the negative logarithm of the Ki (pKi) in assay [1] is 9.16; at Human matrilysin (Matr) it was 7.44. Besides, in assay [2], the GelA (Ki,app) came to 0.027 nM.

In the case of `O=C(O)C[C@H](C(=O)N[C@@H]1CCCC[C@H]1O)n1ccc(-c2ccc(-c3ccccc3)cc2)c1` [Example 1(h), 3(R)-[3-(Biphenyl-4-yl)-1H-pyrrol-1-yl]-N-(2(R)-hydroxycyclohex-1(R)-yl)succinamic Acid], the pKi in assay [1] was 6.09; in assay [3] it was 5.52. The GelA (Ki,app) in assay [2] turned out to be 58 nM.

For `O=C(O)C(F)(F)F.O=C(O)C[C@H](C(=O)N[C@H](CO)Cc1c[nH]cn1)n1ccc(-c2ccc(-c3ccccc3)cc2)c1` [Example 1(g), 3(R)-[3-(Biphenyl-4-yl)-1H-pyrrol-1-yl]-N-[2-hydroxy-1(S)-[(1H-imidazol-4-yl)methyl]ethyl]succinamic Acid Trifluoroacetate Salt], the pKi in assay [1] was 7.24; in assay [3], 7.23. Besides, in assay [2], the GelA (Ki,app) came to 8.5 nM.

On to `CNC(=O)[C@@H](NC(=O)[C@@H](CC(=O)O)c1ccn(-c2ccc(-c3ccc(C#N)cc3)cc2)c1)C(C)(C)C` [Example 14(b), 3(S)-[1-(4′-Cyanobiphenyl-4-yl)-1H-pyrrol-3-yl]-N-[2,2-dimethyl-1(S)-(methylcarbamoyl)propyl]succinamic Acid], for which the pKi was 8.89 in assay [1] and 10.55 in assay [3]. In addition, the GelA (Ki,app) in assay [2] stood at 0.012 nM.

For `CNC(=O)[C@@H](CC(=O)O)n1ccc(-c2ccc(-c3ccncc3)cc2)c1` [Example 7(d), N-Methyl-3(R)-[3-[4-(pyridin-4-yl)phenyl]-1H-pyrrol-1-yl]succinamic Acid], the results for the pKi in assay [1] and in assay [3] were 5.80 and 6.55, respectively. The GelA (Ki,app) in assay [2] was determined as 121 nM.

For `C=CC[C@H](C(=O)O)[C@H](C(=O)N[C@H](CO)C(C)(C)C)n1ccc(-c2ccc(-c3ccccc3)cc2)c1` [Example 12, 2S, 2(1S)-[[3-(Biphenyl-4-yl)-1H-pyrrol-1R-yl]-[2,2-dimethyl-1(S)-(hydroxymethyl)propylcarbamoyl]methyl]pent-4-enoic Acid], in assay [1], the pKi is under 6.30. In addition, the GelA (Ki,app) in assay [2] is over 500 nM.

With `CON(C)C(=O)[C@H](CC(C)C)NC(=O)[C@@H](CC(=O)O)n1ccc(-c2ccc(-c3ccccc3)cc2)c1` [Example 1(l)], the pKi was 6.50 in assay [1] and 6.64 in assay [3]. For the same molecule, in assay [2], the GelA (Ki,app) came to 54 nM.

For `CNC(=O)[C@@H](NC(=O)[C@@H](CC(=O)O)n1ccc(C(=O)Cc2ccc(C#N)cc2)c1)C(C)(C)C` [Example 1(p), 3(R)-[3-[(4-Cyanophenyl)acetyl]-1H-pyrrol-1-yl]-N-(2,2-dimethyl-1(S)-(methylcarbamoyl)propyl]succinamic Acid], in assay [1], the pKi is 4.26. The GelA (Ki,app) in assay [2] was determined as 1230 nM.
